Results taken from patent US20090163546A1, “DIACYLGLYCEROL ACYLTRANSFERASE INHIBITORS” (priority 2007, published 2009).

tested on: DGAT; assay: DGAT Phospholipid FlashPlate Assay; format: biochemical; settings: DGAT pellet, DAG-coated PL-FlashPlate, 14C-Pal-CoA, 37° C. for 1 hour; read-out: Activity in DGAT Phospholipid FlashPlate Assay (A = IC50 < 0.10 μM, B = IC50 ≧ 0.10 μM)
Method: Materials for the assay were: PL-FlashPlate: Phospholipid FlashPlates from PerkinElmer, catalog number SMP108; DAG (1,2-Dioleoyl-sn-glycerol) 10 mM suspended in water containing 0.1% Triton X-100; ^14C-Pal-CoA (palmitoyl coenzyme A, [palmitoyl-1-^14C]) from PerkinElmer, catalog number NEC-555 with a specific activity of 55 mCi/mmol; and DGAT pellet, with a protein concentration of 9.85 mg/ml.
Aqueous buffers were prepared or purchased as follows: The coating buffer (CB) was purchased from PerkinElmer, catalog number SMP900A; the reaction buffer (RB) was 50 mM Tris-HCl, pH 7.5, 100 mM NaCl, 0.01 % BSA in water; the washing buffer (WB) is 50 mM Tris-HCl, pH 7.5, 100 mM NaCl, 0.05 % deoxycholic acid sodium salt in water; the dilution buffer (DB) was 50 mM Tris-HCl, pH 7.5, 100 mM NaCl, 1 mM EDTA, 0.2% Triton X-100 in water.
1,2-Dioleoyl-sn-glycerol (DAG, 10 mmoles) was diluted to 500 μM with coating buffer (CB). The diluted DAG solution was then added to 384-well PL-FlashPlates at 60 μl per well, and incubated at room temperature for 2 days. The coated plates were then washed twice with washing buffer (WB) before use. Test compounds were serial diluted to 2000, 666.7, 222.2, 74.1, 24.7, 8.2, 2.7 and 0.9 μM in 100% DMSO. Diluted compound were further diluted 10 fold with reaction buffer (RB). ^14C-Pal-CoA was diluted to 8.3 μM with RB. The DGAT pellet was diluted to 0.13 mg protein/ml with dilution buffer (DB) immediately before it was added to the PL-FlashPlates to start the reaction. 20 μl of the RB-diluted compounds (or 10% DMSO in RB for Total and Blank), 15 μl of RB diluted 14C-Pal-CoA and 15 μl of DB diluted DGAT pellet (DB without DGAT for Blanks) were transferred to each well of the PL-FlashPlates. The reaction mixtures were incubated at 37° C. for 1 hour. The reactions were stopped by washing 3 times with WB. Plates were sealed with Top-seal and read on a Topcount instrument.
Calculation of IC50: The IC50 values for each compound were generated using an Excel template. The Topcount rpm readings of Total and Blank were used as 0% and 100% inhibition. The percent inhibition values of reactions in the presence of compounds were calculated, and plotted against compound concentrations. All data were fitted into a Dose Response One Site model (4 parameter logistic model) as the following:
(A+((B−A)/(1+((x/C)̂D)))),
with A and B as the bottom and top of the curve ([…]), respectively, and C as IC50 and D as Hill Coefficient of the compound.

Row | IC50 | SMILES
1 | ≥ 100 nM | COc1ccc(Cl)cc1NC(=O)Nc1ccc2c(c1)c(=O)[nH]n2Cc1ccccc1 [Example 1, 1-(1-Benzyl-3-oxo-2,3-dihydro-1H-indazol-5-yl)-3-(5-chloro-2-methoxy-phenyl)-urea]
2 | ≥ 100 nM | CCOc1ccccc1NC(=O)Nc1ccc2c(c1)c(=O)[nH]n2Cc1ccccc1 [Example 2, 1-(1-Benzyl-3-oxo-2,3-dihydro-1H-indazol-5-yl)-3-(2-ethoxy-phenyl)-urea]
3 | ≥ 100 nM | COc1ccccc1NC(=O)Nc1ccc2c(c1)c(=O)[nH]n2Cc1ccccc1 [Example 3, 1-(1-Benzyl-3-oxo-2,3-dihydro-1H-indazol-5-yl)-3-(2-methoxy-phenyl)-urea]
4 | ≥ 100 nM | CCCn1[nH]c(=O)c2cc(NC(=O)Nc3ccccc3OC(F)(F)F)ccc21 [Example 4, 1-(3-Oxo-1-propyl-2,3-dihydro-1H-indazol-5-yl)-3-(2-trifluoromethoxy-phenyl)-urea]
5 | ≥ 100 nM | CCCCc1ccc(NC(=O)Nc2ccc3c(c2)c(=O)[nH]n3CCC)cc1 [Example 5, 1-(4-Butyl-phenyl)-3-(3-oxo-1-propyl-2,3-dihydro-1H-indazol-5-yl)-urea]
6 | ≥ 100 nM | CCCn1[nH]c(=O)c2cc(NC(=O)Nc3cc(C)ccc3OC)ccc21 [Example 6, 1-(2-Methoxy-5-methyl-phenyl)-3-(3-oxo-1-propyl-2,3-dihydro-1H-indazol-5-yl)-urea]
7 | < 100 nM | CCCn1[nH]c(=O)c2cc(NC(=O)Nc3cc(Cl)ccc3OC)ccc21 [Example 7, 1-(5-Chloro-2-methoxy-phenyl)-3-(3-oxo-1-propyl-2,3-dihydro-1H-indazol-5-yl)-urea]
8 | ≥ 100 nM | CCCn1[nH]c(=O)c2cc(NC(=O)Nc3ccccc3C(C)C)ccc21 [Example 8, 1-(2-Isopropyl-phenyl)-3-(3-oxo-1-propyl-2,3-dihydro-1H-indazol-5-yl)-urea]
9 | < 100 nM | CCCn1[nH]c(=O)c2cc(NC(=O)Nc3ccc(Cl)c(Cl)c3)ccc21 [Example 9, 1-(3,4-Dichloro-phenyl)-3-(3-oxo-1-propyl-2,3-dihydro-1H-indazol-5-yl)-urea]
10 | < 100 nM | CCCn1[nH]c(=O)c2cc(NC(=O)Nc3ccccc3CC)ccc21 [Example 10, 1-(2-Ethyl-phenyl)-3-(3-oxo-1-propyl-2,3-dihydro-1H-inidazol-5-yl)-urea]
11 | ≥ 100 nM | CCCn1[nH]c(=O)c2cc(NC(=O)Nc3cc(Cl)ccc3Cl)ccc21 [Example 11, 1-(2,5-Dichloro-phenyl)-3-(3-oxo-1-propyl-2,3-dihydro-1H-indazol-5-yl)-urea]
12 | ≥ 100 nM | CCCn1[nH]c(=O)c2cc(NC(=O)Nc3ccc(Cl)cc3Cl)ccc21 [Example 12, 1-(2,4-Dichloro-phenyl)-3-(3-oxo-1-propyl-2,3-dihydro-1H-indazol-5-yl)-urea]
13 | ≥ 100 nM | CCCn1[nH]c(=O)c2cc(NC(=O)Nc3ccc(C(F)(F)F)cc3)ccc21 [Example 13, 1-(3-Oxo-1-propyl-2,3-dihydro-1H-indazol-5-yl)-3-(4-trifluoromethyl-phenyl)-urea]
14 | ≥ 100 nM | CCCn1[nH]c(=O)c2cc(NC(=O)Nc3ccccc3)ccc21 [Example 14, 1-(3-Oxo-1-propyl-2,3-dihydro-1H-indazol-5-yl)-3-phenyl-urea]
15 | ≥ 100 nM | CCCn1[nH]c(=O)c2cc(NC(=O)Nc3cccc(Cl)c3)ccc21 [Example 15, 1-(3-Chloro-phenyl)-3-(3-oxo-1-propyl-2,3-dihydro-1H-indazol-5-yl)-urea]
16 | ≥ 100 nM | CCCn1[nH]c(=O)c2cc(NC(=O)Nc3cccc(C)c3)ccc21 [Example 16, 1-(3-Oxo-1-propyl-2,3-dihydro-1H-indazol-5-yl)-3-m-tolyl-urea]
17 | ≥ 100 nM | CCCn1[nH]c(=O)c2cc(NC(=O)Nc3cccc(F)c3)ccc21 [Example 17, 1-(3-Fluoro-phenyl)-3-(3-oxo-1-propyl-2,3-dihydro-1H-indazol-5-yl)-urea]

Row | IC50 | SMILES
18 | ≥ 100 nM | CCCn1[nH]c(=O)c2cc(NC(=O)Nc3ccc(F)cc3F)ccc21 [Example 18, 1-(2,4-Difluoro-phenyl)-3-(3-oxo-1-propyl-2,3-dihydro-1H-indazol-5-yl)-urea]
19 | ≥ 100 nM | CCCn1[nH]c(=O)c2cc(NC(=O)Nc3cccc(Br)c3)ccc21 [Example 19, 1-(3-Bromo-phenyl)-3-(3-oxo-1-propyl-2,3-dihydro-1H-indazol-5-yl)-urea]
20 | ≥ 100 nM | CCCn1[nH]c(=O)c2cc(NC(=O)Nc3ccccc3OC)ccc21 [Example 20, 1-(2-Methoxy-phenyl)-3-(3-oxo-1-propyl-2,3-dihydro-1H-indazol-5-yl)-urea]
21 | ≥ 100 nM | CCCn1[nH]c(=O)c2cc(NC(=O)Nc3ccccc3Cl)ccc21 [Example 21, 1-(2-Chloro-phenyl)-3-(3-oxo-1-propyl-2,3-dihydro-1H-indazol-5-yl)-urea]
22 | ≥ 100 nM | CCCn1[nH]c(=O)c2cc(NC(=O)Nc3ccccc3F)ccc21 [Example 22, 1-(2-Fluoro-phenyl)-3-(3-oxo-1-propyl-2,3-dihydro-1H-indazol-5-yl)-urea]
23 | ≥ 100 nM | COc1c(Cl)cccc1NC(=O)Nc1ccc2c(c1)c(=O)[nH]n2Cc1ccccc1 [Example 23, 1-(1-Benzyl-3-oxo-2,3-dihydro-1H-indazol-5-yl)-3-(3-chloro-2-methoxy-phenyl)-urea]
24 | ≥ 100 nM | CCOC(=O)Cn1[nH]c(=O)c2cc(NC(=O)Nc3ccccc3CC)ccc21 [Example 24, {5-[3-(2-ethyl-phenyl)-ureido]-3-oxo-2,3-dihydro-indazol-1-yl}-acetic acid ethyl ester]
25 | ≥ 100 nM | CCc1ccccc1NC(=O)Nc1ccc2c(c1)c(=O)[nH]n2CCOCCOC [Example 25, 1-(2-ethyl-phenyl)-3-{1-[2-(2-methoxy-ethoxy)-ethyl]-3-oxo-2,3-dihydro-1H-indazol-5-yl}-urea]
26 | ≥ 100 nM | CCc1ccccc1NC(=O)Nc1ccc2c(c1)c(=O)[nH]n2CCOC [Example 26, 1-(2-ethyl-phenyl)-3-[1-(2-methoxy-ethyl)-3-oxo-2,3-dihydro-1H-indazol-5-yl]-urea]
27 | < 100 nM | CCCn1[nH]c(=O)c2cc(NC(=O)Nc3cccc4cccnc34)ccc21 [Example 27, 1-(3-Oxo-1-propyl-2,3-dihydro-1H-indazol-5-yl)-3-quinolin-8-yl-urea]
28 | ≥ 100 nM | CCCn1[nH]c(=O)c2cc(NC(=O)Nc3ccccc3N3CCCCC3)ccc21 [Example 28, 1-(3-Oxo-1-propyl-2,3-dihydro-1H-indazol-5-yl)-3-(2-piperidin-1-yl-phenyl)-urea]
29 | ≥ 100 nM | CCCn1[nH]c(=O)c2cc(NC(=O)Nc3ccccc3C(C)CC)ccc21 (stereo not shown) [Example 29, 1-(2-sec-Butyl-phenyl)-3-(3-oxo-1-propyl-2,3-dihydro-1H-indazol-5-yl)-urea]
30 | ≥ 100 nM | O=C(Nc1ccc2c(c1)c(=O)[nH]n2Cc1ccccc1)Nc1ccccc1N1CCCCC1 [Example 30, 1-(1-Benzyl-3-oxo-2,3-dihydro-1H-indazol-5-yl)-3-(2-piperidin-1-yl-phenyl)-urea]
31 | ≥ 100 nM | C#Cc1cccc(NC(=O)Nc2ccc3c(c2)c(=O)[nH]n3CCC)c1 [Example 31, 1-(3-Ethynyl-phenyl)-3-(3-oxo-1-propyl-2,3-dihydro-1H-indazol-5-yl)-urea]
32 | ≥ 100 nM | CCCn1[nH]c(=O)c2cc(NC(=O)Nc3cccc(C(F)(F)F)c3)ccc21 [Example 32, 1-(3-Oxo-1-propyl-2,3-dihydro-1H-indazol-5-yl)-3-(3-trifluoromethyl-phenyl)-urea]
33 | ≥ 100 nM | CC(C)Oc1cccc(NC(=O)Nc2ccc3c(c2)c(=O)[nH]n3Cc2ccccc2)c1 [Example 33, 1-(1-Benzyl-3-oxo-2,3-dihydro-1H-indazol-5-yl)-3-(3-isopropoxy-phenyl)-urea]
34 | ≥ 100 nM | O=C(Nc1cccc(C(F)(F)F)c1)Nc1ccc2c(c1)c(=O)[nH]n2Cc1ccccc1 [Example 34, 1-(1-Benzyl-3-oxo-2,3-dihydro-1H-indazol-5-yl)-3-(3-trifluoromethyl-phenyl)-urea]
